Literature values, collected in patent US20240189459A1, “METASTABLE-FREE LANTHANIDE BASED CONTRAST AGENTS AND METHOD” (Inventure LLC, priority 2022, published 2024).

Settings: thermodynamic stability constant of the DOTA complex with the listed metal ion

Row | SMILES | Stability Constant
1 | O=C([O-])CN1CCN(CC(=O)[O-])CCN(CC(=O)[O-])CCN(CC(=O)[O-])CC1.[Gd+3] [Gd^+3] | 24.7
2 | O=C([O-])CN1CCN(CC(=O)[O-])CCN(CC(=O)[O-])CCN(CC(=O)[O-])CC1.[Pr+3] [Pr^+3] | 23
3 | O=C([O-])CN1CCN(CC(=O)[O-])CCN(CC(=O)[O-])CCN(CC(=O)[O-])CC1.[Tm+3] [TM^+3] | 24.4
4 | O=C([O-])CN1CCN(CC(=O)O)CCN(CC(=O)O)CCN(CC(=O)O)CC1.[Na+] [Na^+1] | 4.2
5 | O=C([O-])CN1CCN(CC(=O)[O-])CCN(CC(=O)[O-])CCN(CC(=O)[O-])CC1.[Dy+3] [Dy^+3] | 24.8
6 | O=C([O-])CN1CCN(CC(=O)[O-])CCN(CC(=O)[O-])CCN(CC(=O)[O-])CC1.[Cu+2] [Cu^+2] | 22.3
7 | O=C([O-])CN1CCN(CC(=O)[O-])CCN(CC(=O)[O-])CCN(CC(=O)[O-])CC1.[Fe+3] [Fe^+3] | 29.4
8 | O=C([O-])CN1CCN(CC(=O)[O-])CCN(CC(=O)[O-])CCN(CC(=O)[O-])CC1.[Eu+3] [Eu^+3] | 23.5
9 | O=C([O-])CN1CCN(CC(=O)[O-])CCN(CC(=O)O)CCN(CC(=O)O)CC1.[Zn+2] [Zn^+2] | 20.8
10 | O=C([O-])CN1CCN(CC(=O)[O-])CCN(CC(=O)O)CCN(CC(=O)O)CC1.[Ca+2] [Ca^+2] | 17.2
11 | O=C([O-])CN1CCN(CC(=O)[O-])CCN(CC(=O)O)CCN(CC(=O)O)CC1.[Mg+2] [Mg^+2] | 11.9
